Measured values taken from US20030100997A1, “Matrix assays in genomically indexed cells” (priority 2001, published 2003).
“And” between values parts separate entries of the source, which are not always exact repeats. Equal entries are not always repeated.

Columns and labels:
Type in all cases: cell-based
SK-Hep-1 = assay: calcium mobilization (FLIPR, Fluo-3) in SK-Hep-1; settings: agonist alone (buffer), 10 uM, 100 = 10 uM ionomycin
Protocol: (§1) The above panel of 10 cell lines was plated in 96-well black, clear-bottomed tissue culture-treated plates (Molecular Devices, Sunnyvale, Calif. with the number of cells per well indicated in Table 1. Cells were maintained overnight at 37° C., 5%CO2 in a humidified incubator. Media was removed and the cells were then incubated in Hanks balanced salt solution (Invitrogen, Carlsbad Calif.)/10 mM HEPES pH 7.4 containing 0.04% Pluronic Acid (Molecular Probes, Eugene Oreg.) and 4 uM Fluor-3AM (Molecular Probes, Eugene Oreg.) for one hour at 37° C.
(§2) Antagonists were added to the indicated concentration and the cells incubated at room temperature for 20 minutes. After 10 seconds of baseline read collection, agonists were added on a FLIPR instrument (Molecular Devices, Sunnyvale, Calif.) and data were collected for a total of 3.5 minutes. The fluorescence emission was normalized to initial intensity and the sum of the signal over the entire time period was exported and used for determining percent of control responses using the following formula: Percent of Control=(Sample-unstimulated cells)/(ionomycin treated cells-unstimulated cells). […] Calcium mobilization was measured as described above.

COLO320 = assay: calcium mobilization (FLIPR, Fluo-3) in COLO320
Protocol: as §1, §2
(§3) Expression of the target H1 receptor was measured by RT-PCR of mRNA samples from each cell line, as follows.

T-47D = assay: calcium mobilization (FLIPR, Fluo-3) in T-47D; settings: for calcium mobilization, Percent of Control: T-47D; for effect on the response to ionomycin in T-47D cells: antagonist at 10 uM, cells do not express the H1 receptor
Protocol: as §1, §2, §3

HBL-100 = assay: calcium mobilization (FLIPR, Fluo-3) in HBL-100; settings: for calcium mobilization, Percent of Control: HBL-100; for effect on responses to bradykinin in HBL-100 cells: antagonist at 10 uM
Protocol: as §1
as §2, with “above. […]” for “above.”

NTera-2 = assay: calcium mobilization (FLIPR, Fluo-3) in NTera-2; settings: for calcium mobilization, Percent of Control: NTera-2; for effect on the response to ionomycin in NTera-2 cells: antagonist at 10 uM, cells do not express the H1 receptor
Protocol: as §1
as §2, with “above. […]” for “above.”

PC-3 = assay: calcium mobilization (FLIPR, Fluo-3) in PC-3
Protocol: as §1
as §2, with “above. […]” for “above.”

PANC-1 = assay: calcium mobilization (FLIPR, Fluo-3) in PANC-1
Protocol: as §1
as §2, with “above. […]” for “above.”

SaOS-2 = assay: calcium mobilization (FLIPR, Fluo-3) in SaOS-2; settings: for calcium mobilization, Percent of Control: SaOS-2; for effect on responses to bradykinin in SaOS-2 cells: antagonist at 10 uM
Protocol: as §1
as §2, with “above. […]” for “above.”

NCI-H460 = assay: calcium mobilization (FLIPR, Fluo-3) in NCI-H460
Protocol: as §1
as §2, with “above. […]” for “above.”

Jurkat = assay: calcium mobilization (FLIPR, Fluo-3) in Jurkat
Protocol: as §1
as §2, with “above. […]” for “above.”

panel of 10 cell lines = assay: calcium mobilization profile across the panel of 10 cell lines; settings: for effect on calcium responses to histamine: histamine-induced calcium mobilization, panel of 10 cell lines, antagonist 1 or 10 uM
Protocol: as §1, §2, §3

[1] = agonist alone (buffer), 10 uM, 100 = 10 uM ionomycin
[2] = response to 1 uM bradykinin after antagonist 10 uM
[3] = response to 10 uM histamine after antagonist 10 uM, 20 min
[4] = response to 10 uM ionomycin after antagonist 10 uM

C[C@H](CCC(=O)O)C[C@H](C)C[C@H](C)C(=O)/C=C(\O)[C@H](C)C[C@H](C)C/C=C/[C@@H](C)[C@@H](O)[C@@H](C)[C@@H](O)C[C@@H]1CC[C@@](C)([C@H]2CC[C@@](C)([C@@H](C)O)O2)O1 [ionomycin]
calcium mobilization, Percent of Control (SK-Hep-1): 100% of Control
calcium mobilization, Percent of Control (COLO320; [1]): 100% of Control
calcium mobilization, Percent of Control (T-47D; [1]): 100% of Control
calcium mobilization, Percent of Control (HBL-100; [1]): 100% of Control
calcium mobilization, Percent of Control (NTera-2; [1]): 100% of Control
calcium mobilization, Percent of Control (PC-3; [1]): 100% of Control
calcium mobilization, Percent of Control (PANC-1; [1]): 100% of Control
calcium mobilization, Percent of Control (SaOS-2; [1]): 100% of Control
calcium mobilization, Percent of Control (NCI-H460; [1]): 100% of Control
calcium mobilization, Percent of Control (Jurkat; [1]): 100% of Control

CNCCc1cnc[nH]1 [N-a-his, N-alphamethyl histamine]
calcium mobilization, Percent of Control (SK-Hep-1): 12% of Control
calcium mobilization, Percent of Control (COLO320; [1]): 1% of Control
calcium mobilization, Percent of Control (T-47D; [1]): 0% of Control
calcium mobilization, Percent of Control (HBL-100; [1]): 16% of Control
calcium mobilization, Percent of Control (NTera-2; [1]): 2% of Control
activity in cells that do not express the H1 receptor target (panel of 10 cell lines; agonist example, 10 uM): Neither Compound 1 nor histamine were active
calcium mobilization, Percent of Control (PC-3; [1]): 1% of Control
calcium mobilization, Percent of Control (PANC-1; [1]): 22% of Control
calcium mobilization, Percent of Control (SaOS-2; [1]): 11% of Control
calcium mobilization, Percent of Control (NCI-H460; [1]): 30% of Control
calcium mobilization, Percent of Control (Jurkat; [1]): 2% of Control

COc1ccc2c(c1)CC[C@@H]1[C@@H]2CC[C@]2(C)[C@@H](NCCCCCCN3C(=O)C=CC3=O)CC[C@@H]12 [Compound U73122, U73122]
calcium mobilization, Percent of Control (COLO320; [2]): 5% of Control
calcium mobilization, Percent of Control (COLO320; [3]): 2% of Control
calcium mobilization, Percent of Control (COLO320; [4]): 73% of Control
calcium mobilization, Percent of Control (T-47D; [2]): 1% of Control
calcium mobilization, Percent of Control (T-47D; [3]): 1% of Control
calcium mobilization, Percent of Control (T-47D; [4]): 88% of Control
effect on the response to ionomycin in T-47D cells (T-47D): partially inhibit the response to ionomycin
effect on responses to bradykinin in HBL-100 cells (HBL-100): inhibits the responses
calcium mobilization, Percent of Control (NTera-2; [2]): 1% of Control
calcium mobilization, Percent of Control (NTera-2; [3]): 2% of Control
calcium mobilization, Percent of Control (NTera-2; [4]): 72% of Control
effect on the response to ionomycin in NTera-2 cells (NTera-2): partially inhibit the response to ionomycin
specificity as inhibitor of histamine signaling through the H1 receptor (panel of 10 cell lines; compared with chlorpheniramine): less specific than chlorpheniramine
effect on calcium responses to histamine (panel of 10 cell lines): inhibit responses to histamine
calcium mobilization, Percent of Control (PC-3; [2]): 0% of Control
calcium mobilization, Percent of Control (PC-3; [3]): 0% of Control
calcium mobilization, Percent of Control (PC-3; [4]): 100% of Control
calcium mobilization, Percent of Control (PANC-1; [2]): 0% of Control
calcium mobilization, Percent of Control (PANC-1; [3]): 2% of Control
calcium mobilization, Percent of Control (PANC-1; [4]): 89% of Control
calcium mobilization, Percent of Control (SaOS-2; [2]): 2% of Control
calcium mobilization, Percent of Control (SaOS-2; [3]): 0% of Control
calcium mobilization, Percent of Control (SaOS-2; [4]): 71% of Control
effect on responses to bradykinin in SaOS-2 cells (SaOS-2): inhibits the responses
calcium mobilization, Percent of Control (NCI-H460; [2]): 1% of Control
calcium mobilization, Percent of Control (NCI-H460; [3]): 2% of Control
calcium mobilization, Percent of Control (NCI-H460; [4]): 102% of Control
calcium mobilization, Percent of Control (Jurkat; [2]): 52% of Control
calcium mobilization, Percent of Control (Jurkat; [3]): 2% of Control
calcium mobilization, Percent of Control (Jurkat; [4]): 52% of Control

CN(C)CCC(c1ccc(Cl)cc1)c1ccccn1 (stereo not shown) [Compound C1PhAm, chlorpheniramine]
calcium mobilization, Percent of Control (COLO320; [2]): 0% of Control
calcium mobilization, Percent of Control (COLO320; [4]): 98% of Control and 95% of Control
calcium mobilization, Percent of Control (T-47D; [4]): 102% of Control
effect on the response to ionomycin in T-47D cells (T-47D): does not affect the ionomycin response
calcium mobilization, Percent of Control (HBL-100; [2]): 11% of Control
calcium mobilization, Percent of Control (HBL-100; [3]): 0% of Control
calcium mobilization, Percent of Control (HBL-100; [4]): 87% of Control
effect on responses to bradykinin in HBL-100 cells (HBL-100): does not
calcium mobilization, Percent of Control (NTera-2; [3]): 0% of Control
calcium mobilization, Percent of Control (NTera-2; [4]): 99% of Control and 119% of Control
effect on the response to ionomycin in NTera-2 cells (NTera-2): does not affect the ionomycin response
effect on calcium responses to bradykinin (panel of 10 cell lines; bradykinin-induced, antagonist at 10 uM): did not inhibit bradykinin responses
effect on calcium responses to histamine (panel of 10 cell lines): had similar effects to Compound 1
calcium mobilization, Percent of Control (PC-3; [2]): 0% of Control
calcium mobilization, Percent of Control (PC-3; [3]): 0% of Control
calcium mobilization, Percent of Control (PC-3; [4]): 104% of Control
calcium mobilization, Percent of Control (PANC-1; [4]): 101% of Control and 104% of Control
calcium mobilization, Percent of Control (SaOS-2; [2]): 29% of Control and 23% of Control
calcium mobilization, Percent of Control (SaOS-2; [4]): 96% of Control and 112% of Control
effect on responses to bradykinin in SaOS-2 cells (SaOS-2): does not
calcium mobilization, Percent of Control (NCI-H460; [4]): 73% of Control and 96% of Control
calcium mobilization, Percent of Control (Jurkat; [2]): 12% of Control and 10% of Control
calcium mobilization, Percent of Control (Jurkat; [3]): 8% of Control and 5% of Control
calcium mobilization, Percent of Control (Jurkat; [4]): 70% of Control and 123% of Control

NCCc1c[nH]cn1 [histamine]
calcium mobilization, Percent of Control (SK-Hep-1): 19% of Control
calcium mobilization, Percent of Control (HBL-100; [1]): 18% of Control and 27% of Control
calcium mobilization, Percent of Control (NTera-2; [1]): 0% of Control
activity in cells that do not express the H1 receptor target (panel of 10 cell lines; agonist example, 10 uM): Neither Compound 1 nor histamine were active
calcium mobilization, Percent of Control (PC-3; [1]): 1% of Control
calcium mobilization, Percent of Control (PANC-1; [1]): 26% of Control and 30% of Control
calcium mobilization, Percent of Control (SaOS-2; [1]): 13% of Control and 18% of Control
calcium mobilization, Percent of Control (NCI-H460; [1]): 32% of Control and 24% of Control

C[C@@H](N)Cc1c[nH]cn1 [R-a-his, R-alphamethyl histamine]
calcium mobilization, Percent of Control (SK-Hep-1): −1% of Control
calcium mobilization, Percent of Control (COLO320; [1]): 1% of Control
calcium mobilization, Percent of Control (T-47D; [1]): 0% of Control
calcium mobilization, Percent of Control (HBL-100; [1]): −1% of Control
calcium mobilization, Percent of Control (NTera-2; [1]): 2% of Control
pattern of calcium responses compared with histamine and bradykinin (panel of 10 cell lines; agonist example, 10 uM, 10 cell lines): resembles neither bradykinin nor histamine
calcium mobilization, Percent of Control (PC-3; [1]): 0% of Control
calcium mobilization, Percent of Control (PANC-1; [1]): 0% of Control
calcium mobilization, Percent of Control (SaOS-2; [1]): 0% of Control
calcium mobilization, Percent of Control (NCI-H460; [1]): 0% of Control
calcium mobilization, Percent of Control (Jurkat; [1]): 2% of Control
